Results reported in ChEMBL document CHEMBL5291721, “A preclinical secondary pharmacology resource illuminates target-adverse drug reaction associations of marketed drugs” (Nat Commun, 2023).

Columns and labels:
[1] = target: T1, Prostaglandin G/H synthase 1 (Rattus norvegicus, UniProt Q63921); assay type: functional
T1 sequence (Q63921 whole entry): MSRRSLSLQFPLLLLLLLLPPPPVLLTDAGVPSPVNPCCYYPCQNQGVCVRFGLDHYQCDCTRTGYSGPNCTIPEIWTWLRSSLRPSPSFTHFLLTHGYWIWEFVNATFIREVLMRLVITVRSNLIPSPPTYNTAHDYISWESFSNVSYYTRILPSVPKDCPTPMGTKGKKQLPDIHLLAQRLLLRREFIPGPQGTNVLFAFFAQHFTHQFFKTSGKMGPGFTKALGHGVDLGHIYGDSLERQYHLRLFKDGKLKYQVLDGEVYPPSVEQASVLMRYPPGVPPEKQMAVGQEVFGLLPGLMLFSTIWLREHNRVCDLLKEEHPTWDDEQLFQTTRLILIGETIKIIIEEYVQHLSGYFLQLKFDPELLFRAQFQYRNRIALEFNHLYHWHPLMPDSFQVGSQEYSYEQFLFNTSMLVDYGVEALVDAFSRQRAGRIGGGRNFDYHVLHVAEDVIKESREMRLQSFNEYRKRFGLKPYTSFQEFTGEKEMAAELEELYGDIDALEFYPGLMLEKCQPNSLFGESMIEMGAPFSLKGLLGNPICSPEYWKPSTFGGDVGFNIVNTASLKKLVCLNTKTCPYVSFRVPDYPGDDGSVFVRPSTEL

[2] = target: Glutamate receptor ionotropic, NMDA 1 (Rattus norvegicus, UniProt P35439)
[3] = target: Delta-type opioid receptor (Homo sapiens, UniProt P41143)
Sequence of Delta-type opioid receptor (P41143 whole entry): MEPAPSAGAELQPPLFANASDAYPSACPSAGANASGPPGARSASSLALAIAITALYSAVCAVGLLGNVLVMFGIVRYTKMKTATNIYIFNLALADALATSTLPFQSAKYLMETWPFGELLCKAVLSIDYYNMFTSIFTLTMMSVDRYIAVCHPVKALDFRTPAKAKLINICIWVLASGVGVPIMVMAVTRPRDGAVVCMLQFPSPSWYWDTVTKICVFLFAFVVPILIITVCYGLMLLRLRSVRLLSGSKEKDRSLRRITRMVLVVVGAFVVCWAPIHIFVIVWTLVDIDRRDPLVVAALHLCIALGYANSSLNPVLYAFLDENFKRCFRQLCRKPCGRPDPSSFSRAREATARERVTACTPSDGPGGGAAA

[4] = target: cGMP-inhibited 3',5'-cyclic phosphodiesterase 3A (Homo sapiens, UniProt Q14432); assay type: functional
Sequence of cGMP-inhibited 3',5'-cyclic phosphodiesterase 3A (Q14432 whole entry): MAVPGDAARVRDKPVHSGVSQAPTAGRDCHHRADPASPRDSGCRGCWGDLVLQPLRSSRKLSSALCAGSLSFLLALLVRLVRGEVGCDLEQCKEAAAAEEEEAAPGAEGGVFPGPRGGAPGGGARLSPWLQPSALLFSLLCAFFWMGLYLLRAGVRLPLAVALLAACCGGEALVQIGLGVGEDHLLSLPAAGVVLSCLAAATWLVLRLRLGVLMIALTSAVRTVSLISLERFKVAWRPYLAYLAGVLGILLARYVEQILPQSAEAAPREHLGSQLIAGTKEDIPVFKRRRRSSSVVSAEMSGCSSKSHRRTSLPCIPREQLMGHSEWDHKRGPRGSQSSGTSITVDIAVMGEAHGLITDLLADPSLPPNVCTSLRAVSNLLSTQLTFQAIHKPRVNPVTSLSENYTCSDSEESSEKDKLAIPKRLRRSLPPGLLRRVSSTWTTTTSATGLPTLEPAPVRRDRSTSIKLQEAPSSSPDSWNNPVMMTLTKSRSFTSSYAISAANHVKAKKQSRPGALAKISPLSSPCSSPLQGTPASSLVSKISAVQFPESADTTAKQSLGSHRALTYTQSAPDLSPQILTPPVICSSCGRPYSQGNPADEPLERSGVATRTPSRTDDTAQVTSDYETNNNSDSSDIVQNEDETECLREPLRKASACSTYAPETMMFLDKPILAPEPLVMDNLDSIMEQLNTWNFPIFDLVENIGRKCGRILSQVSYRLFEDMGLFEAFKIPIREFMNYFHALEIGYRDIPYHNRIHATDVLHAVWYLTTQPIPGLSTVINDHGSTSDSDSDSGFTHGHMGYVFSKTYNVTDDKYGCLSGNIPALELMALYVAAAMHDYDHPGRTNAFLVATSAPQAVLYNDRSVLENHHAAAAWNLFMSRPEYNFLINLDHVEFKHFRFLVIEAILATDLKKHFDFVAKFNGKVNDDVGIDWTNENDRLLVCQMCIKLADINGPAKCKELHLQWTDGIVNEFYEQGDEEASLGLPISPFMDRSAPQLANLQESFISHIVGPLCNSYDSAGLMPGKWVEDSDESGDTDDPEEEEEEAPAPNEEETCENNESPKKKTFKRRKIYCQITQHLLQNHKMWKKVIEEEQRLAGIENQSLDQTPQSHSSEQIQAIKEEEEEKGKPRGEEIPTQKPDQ

[5] = target: Motilin receptor (Homo sapiens, UniProt O43193)
Sequence of Motilin receptor (O43193 whole entry): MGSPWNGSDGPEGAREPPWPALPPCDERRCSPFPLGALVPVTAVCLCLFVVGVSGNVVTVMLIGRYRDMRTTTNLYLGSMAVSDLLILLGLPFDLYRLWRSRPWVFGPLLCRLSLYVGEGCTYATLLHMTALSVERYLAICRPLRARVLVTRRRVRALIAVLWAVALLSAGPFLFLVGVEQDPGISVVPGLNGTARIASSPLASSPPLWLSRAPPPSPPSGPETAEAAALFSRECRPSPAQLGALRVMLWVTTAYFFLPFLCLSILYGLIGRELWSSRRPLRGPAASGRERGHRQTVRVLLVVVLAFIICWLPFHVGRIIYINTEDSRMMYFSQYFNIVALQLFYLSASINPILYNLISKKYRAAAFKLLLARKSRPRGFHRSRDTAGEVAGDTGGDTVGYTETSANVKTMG

[6] = target: Histamine H2 receptor (Homo sapiens, UniProt P25021); assay type: functional, cell-based
Sequence of Histamine H2 receptor (P25021 whole entry): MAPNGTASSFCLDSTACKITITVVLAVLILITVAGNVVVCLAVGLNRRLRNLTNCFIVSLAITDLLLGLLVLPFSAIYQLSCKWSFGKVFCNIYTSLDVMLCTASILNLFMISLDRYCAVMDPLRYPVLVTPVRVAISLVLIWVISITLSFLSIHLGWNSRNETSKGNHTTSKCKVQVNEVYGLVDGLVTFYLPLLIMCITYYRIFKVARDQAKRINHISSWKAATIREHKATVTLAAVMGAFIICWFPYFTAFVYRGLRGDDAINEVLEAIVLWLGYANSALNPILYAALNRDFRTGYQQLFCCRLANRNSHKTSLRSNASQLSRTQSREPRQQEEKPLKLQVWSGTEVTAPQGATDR

[7] = target: 3',5'-cyclic-AMP phosphodiesterase 4D (Homo sapiens, UniProt Q08499); assay type: functional
Sequence of 3',5'-cyclic-AMP phosphodiesterase 4D (Q08499 whole entry): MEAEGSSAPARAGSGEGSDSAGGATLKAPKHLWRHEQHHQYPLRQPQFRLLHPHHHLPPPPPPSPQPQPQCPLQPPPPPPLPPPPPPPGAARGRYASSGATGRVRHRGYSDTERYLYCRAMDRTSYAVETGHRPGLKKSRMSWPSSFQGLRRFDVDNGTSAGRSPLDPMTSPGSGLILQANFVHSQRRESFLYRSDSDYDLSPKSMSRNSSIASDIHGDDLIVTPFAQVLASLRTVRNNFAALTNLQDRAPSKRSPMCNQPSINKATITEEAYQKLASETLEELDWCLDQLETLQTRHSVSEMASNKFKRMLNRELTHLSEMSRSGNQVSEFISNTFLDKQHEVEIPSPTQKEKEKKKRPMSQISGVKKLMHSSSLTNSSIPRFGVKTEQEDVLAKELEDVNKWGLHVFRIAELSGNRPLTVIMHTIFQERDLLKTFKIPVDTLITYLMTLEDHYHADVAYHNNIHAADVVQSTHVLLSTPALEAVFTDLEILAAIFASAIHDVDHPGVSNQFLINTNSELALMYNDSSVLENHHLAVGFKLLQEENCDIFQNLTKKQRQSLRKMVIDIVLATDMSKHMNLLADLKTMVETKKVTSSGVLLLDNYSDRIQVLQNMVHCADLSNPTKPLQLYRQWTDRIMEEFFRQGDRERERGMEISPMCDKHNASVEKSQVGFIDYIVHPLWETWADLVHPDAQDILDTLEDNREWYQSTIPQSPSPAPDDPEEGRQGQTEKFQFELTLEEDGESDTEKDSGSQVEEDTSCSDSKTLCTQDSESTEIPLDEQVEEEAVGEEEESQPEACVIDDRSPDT

[8] = target: T2, Alpha-2C adrenergic receptor (Homo sapiens, UniProt P18825); assay type: functional
T2 sequence (P18825 whole entry): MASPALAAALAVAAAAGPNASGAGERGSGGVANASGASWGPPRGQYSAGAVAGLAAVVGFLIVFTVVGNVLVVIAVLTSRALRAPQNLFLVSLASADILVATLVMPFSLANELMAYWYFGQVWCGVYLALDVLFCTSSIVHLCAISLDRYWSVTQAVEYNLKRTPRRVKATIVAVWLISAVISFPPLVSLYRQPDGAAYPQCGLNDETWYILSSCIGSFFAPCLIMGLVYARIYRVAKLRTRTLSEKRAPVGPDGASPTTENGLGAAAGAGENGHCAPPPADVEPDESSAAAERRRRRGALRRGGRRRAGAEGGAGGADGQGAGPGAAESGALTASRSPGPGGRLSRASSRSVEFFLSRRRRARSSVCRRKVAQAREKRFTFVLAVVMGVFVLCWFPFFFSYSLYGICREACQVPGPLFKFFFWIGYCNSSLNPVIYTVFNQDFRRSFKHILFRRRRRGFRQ

[9] = target: T3, 5-hydroxytryptamine receptor 1A (Homo sapiens, UniProt P08908); assay type: functional, cell-based
T3 sequence (P08908 whole entry): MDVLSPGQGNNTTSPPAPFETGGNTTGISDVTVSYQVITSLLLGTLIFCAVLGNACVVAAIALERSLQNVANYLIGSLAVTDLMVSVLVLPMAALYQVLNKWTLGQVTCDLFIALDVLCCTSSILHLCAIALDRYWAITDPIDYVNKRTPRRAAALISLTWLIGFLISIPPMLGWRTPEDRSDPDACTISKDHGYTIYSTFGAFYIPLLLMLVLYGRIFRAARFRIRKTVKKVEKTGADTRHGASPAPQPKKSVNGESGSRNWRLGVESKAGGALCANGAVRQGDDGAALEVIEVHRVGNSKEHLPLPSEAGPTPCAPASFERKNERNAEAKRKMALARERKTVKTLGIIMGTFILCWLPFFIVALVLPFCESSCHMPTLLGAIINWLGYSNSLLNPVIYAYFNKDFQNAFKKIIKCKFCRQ

[10] = target: Beta-1 adrenergic receptor (Homo sapiens, UniProt P08588); assay type: functional
Sequence of Beta-1 adrenergic receptor (P08588 whole entry): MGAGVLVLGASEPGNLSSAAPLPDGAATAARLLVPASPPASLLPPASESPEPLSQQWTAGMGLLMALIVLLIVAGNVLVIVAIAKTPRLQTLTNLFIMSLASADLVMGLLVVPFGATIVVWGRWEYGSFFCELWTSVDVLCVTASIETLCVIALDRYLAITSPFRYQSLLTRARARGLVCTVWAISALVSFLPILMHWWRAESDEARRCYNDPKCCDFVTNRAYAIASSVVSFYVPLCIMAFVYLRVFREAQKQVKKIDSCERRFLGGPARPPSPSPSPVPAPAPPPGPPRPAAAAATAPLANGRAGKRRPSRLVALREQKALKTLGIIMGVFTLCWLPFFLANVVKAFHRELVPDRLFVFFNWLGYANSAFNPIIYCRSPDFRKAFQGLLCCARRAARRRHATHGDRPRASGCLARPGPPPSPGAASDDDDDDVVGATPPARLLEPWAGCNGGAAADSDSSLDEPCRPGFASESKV

[11] = target: Sodium-dependent dopamine transporter (Homo sapiens, UniProt Q01959)
Sequence of Sodium-dependent dopamine transporter (Q01959 whole entry): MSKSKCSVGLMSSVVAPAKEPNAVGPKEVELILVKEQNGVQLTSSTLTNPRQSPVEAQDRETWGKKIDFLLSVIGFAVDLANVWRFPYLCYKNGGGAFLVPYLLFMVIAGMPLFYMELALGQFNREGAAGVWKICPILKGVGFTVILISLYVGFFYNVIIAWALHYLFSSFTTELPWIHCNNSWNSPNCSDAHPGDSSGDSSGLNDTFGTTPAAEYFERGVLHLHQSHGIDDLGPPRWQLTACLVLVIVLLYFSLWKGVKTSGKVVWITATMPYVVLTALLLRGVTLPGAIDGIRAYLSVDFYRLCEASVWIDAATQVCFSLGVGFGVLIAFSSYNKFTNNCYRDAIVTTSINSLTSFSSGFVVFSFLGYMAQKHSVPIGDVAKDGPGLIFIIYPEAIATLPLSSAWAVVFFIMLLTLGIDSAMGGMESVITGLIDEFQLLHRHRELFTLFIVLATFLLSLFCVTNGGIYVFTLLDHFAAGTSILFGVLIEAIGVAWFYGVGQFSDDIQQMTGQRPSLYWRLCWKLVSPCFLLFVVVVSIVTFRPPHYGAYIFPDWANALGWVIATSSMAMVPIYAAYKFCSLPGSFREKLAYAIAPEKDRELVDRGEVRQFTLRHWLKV
Further: assay procedure not described here.

Row | Compound | AC50 [1] | AC50 [2] | AC50 [3] | AC50 [4] | AC50 [5] | AC50 [6] | AC50 [7] | AC50 [9] | AC50 [11] | AC50 [8] | AC50 [10]
1 | O=c1oc2ccccc2c(O)c1Cc1c(O)c2ccccc2oc1=O [DICUMAROL] | > 30 µM | > 10 µM | > 30 µM | > 10 µM | > 10 µM | > 10 µM | 6.3 µM | > 10 µM | > 10 µM | > 10 µM | > 10 µM
2 | CCn1cc(C(=O)O)c(=O)c2cc(F)c(N3CCNCC3)nc21 [ENOXACIN] | > 30 µM | > 10 µM | > 10 µM | > 30 µM | > 10 µM | > 10 µM | > 10 µM | > 10 µM | > 10 µM | > 10 µM | > 10 µM
3 | O=C(O)CSCC(=O)NC1CCSC1=O (stereo unspecified) [ERDOSTEINE] | > 30 µM | > 30 µM | > 30 µM | > 30 µM | > 30 µM | > 30 µM | > 30 µM | > 30 µM | > 30 µM | > 30 µM | > 30 µM
4 | CNC(=O)Oc1ccc2c(c1)[C@]1(C)CCN(C)[C@@H]1N2C [PHYSOSTIGMINE] | > 30 µM | > 30 µM | > 30 µM | > 30 µM | > 30 µM | > 30 µM | > 30 µM | > 30 µM | > 30 µM | > 30 µM | > 30 µM
5 | O=C(CCCN1CCC2(CC1)C(=O)NCN2c1ccccc1)c1ccc(F)cc1 [SPIPERONE] | > 30 µM | > 30 µM |  | > 30 µM | > 30 µM | > 30 µM | > 30 µM |  | 7.2 µM | 0.369 µM | 2.8 µM
6 | CCSc1ccc2c(c1)N(CCCN1CCN(C)CC1)c1ccccc1S2 [THIETHYLPERAZINE] | > 30 µM |  |  | > 30 µM |  |  | 16 µM |  | 15 µM | 2.2 µM | > 30 µM

The next lines start with results.

Row | AC50 [1] | AC50 [2] | AC50 [3] | AC50 [4] | AC50 [5] | AC50 [6] | AC50 [7] | AC50 [9] | AC50 [11] | Compound | AC50 [8] | AC50 [10]
7 | > 30 µM | > 30 µM | > 30 µM | > 30 µM | > 30 µM | > 30 µM | > 30 µM | > 30 µM | > 30 µM | COc1cccc(N(C)C(=S)Oc2ccc3c(c2)CCCC3)n1 [LIRANAFTATE] | > 30 µM | > 30 µM
8 | > 10 µM | > 10 µM | > 30 µM | > 30 µM | > 10 µM | > 30 µM | > 30 µM | > 10 µM | 20 µM | C#C[C@]1(O)CC[C@H]2[C@@H]3CCc4cc(OC)ccc4[C@H]3CC[C@@]21C [MESTRANOL] | > 30 µM | > 10 µM
9 | > 30 µM | 0.29 µM |  | > 30 µM | 27 µM | > 30 µM | > 30 µM | > 30 µM | 2.8 µM | N=C(N)c1ccc2cc(OC(=O)c3ccc(N=C(N)N)cc3)ccc2c1 [NAFAMOSTAT] | 3.2 µM | > 30 µM
10 | > 30 µM | > 30 µM | 2.2 µM | > 30 µM | > 30 µM | > 30 µM | > 30 µM | > 30 µM | > 30 µM | O=C(O)c1cc(O)c2c3nc4ccccc4oc-3cc(=O)c2n1 [PIRENOXINE] | 2.7 µM | > 30 µM
11 | > 10 µM | > 10 µM | > 30 µM | > 30 µM | > 10 µM | > 10 µM | > 30 µM | > 10 µM | 17.8 µM | CNCCCC1c2ccccc2C=Cc2ccccc21 [PROTRIPTYLINE] |  | 
